Data from article PMC11571109, “Covalent Inhibitors of S100A4 Block the Formation of a Pro-Metastasis Non-Muscle Myosin 2A Complex” (Journal of Medicinal Chemistry, 2024).
Values joined by “and” are separate entries in the source; they are usually repeats but may differ in a detail not shown here. Identical values can stand only once. Like-named read-outs stand apart in the source and are kept apart here.

Assays:
A549 = assay: Cell proliferation assay (CellTiter-Glo), A549; type: cell-based; details: Homo sapiens, 48 h, supplementary CSV
Method: (§1) To further characterize the potency of the phenylproline derivatives on cancer cells, their effect on proliferation has been measured on HeLa and A549 cell lines, which are known to express S100A4.[44],[45] A cell proliferation assay was performed by cultivating cells for 48 h in complete media with various concentrations of inhibitors, up to 30 μM. At the end of the treatment, luminescence was measured after the addition of the CellTiter-Glo reagent (Figure 7A).
(§2) The day before, cells were seeded in a white, cell-culture treated 384-well plates in complete high-glucose DMEM to reach a confluency of 25% on the day of the experiment. The next day, the medium was replaced by complete, high-glucose, phenol-red-free medium, and cells were incubated for 48 h in the presence of an inhibitor or DMSO as a control. Aliquots of the supernatant were harvested, diluted 100 times in 200 mM Tris-HCl, pH 7.3, 10% glycerol, and 1% BSA buffer, and used for cyctotoxicity measurement by using the LDH-Glo cytotoxicity assay kit (Promega). In parallel, the CellTiter-Glo (Promega) reagent was added to the cells to measure cell proliferation. Both experiments were done according to the manufacturer’s recommendations, and the luminescence was quantified using the FSX plate reader (Pherastar).

[1] = Aqueous solubility in PBS (pH 7.4); type: physicochemical; details: for solubility: aqueous buffer, PBS pH 7.4, read-out: aq. solubility
Source text: (§3) Selected compounds were screened for aqueous solubility in PBS (pH 7.4), metabolic stability in mouse liver microsomes (MLM) as a measure of clearance, Log D, and permeability. ADME studies reported in this work were independently performed by WuXi AppTec (Shanghai, China). Raw data are provided upon request.

[2] = Metabolic stability in mouse liver microsomes (MLM); type: in vitro ADME; details: for MLM, Cli / half-life: mouse liver microsomes; for half-life: read-out: MLM, T1/2
Source text: as §3

[3] = GSH reactivity assay (LCMS); type: physicochemical; details: 1 mM glutathione (GSH) in HEPES buffer, pH 7.5; read-out: GSH t1/2 (converted)
Method: GSH is the most abundant low molecular weight thiol compound in the cell. It protects cells from oxidative damage and the toxicity of xenobiotic electrophiles and maintains redox homeostasis.[43] We speculated that a robust and specific reaction of inhibitors would not be drastically affected by competitive cysteines in the reaction.
50 μM of each compound was incubated at room temperature with 1 mM GSH in 50 mM HEPES, 20 mM NaCl, pH 7.5, and 1.3% DMSO. At each time point, an aliquot was taken and analyzed by LCMS. The percentage of the compound remaining was determined by comparing the area of the peaks of the compound and the GSH adduct. The natural logarithm of the results was fitted to a linear regression, and t1/2 was calculated as t1/2 = ln(2)/–slope.

[4] = Cytotoxicity assay (LDH-Glo), A549; type: cell-based; details: human, A549 cells, supplementary CSV, read-out: A549 Cell toxicity IC50
Method: as §1, §2

HeLa = assay: Cell proliferation assay (CellTiter-Glo), HeLa; type: cell-based; details: Homo sapiens, 48 h, supplementary CSV
Method: as §1, §2

Log D = type: physicochemical
Source text: as §3

[5] = system: P-glycoprotein (P-gp, MDR1); assay: Cell permeability MDR1-MDCK II; type: in vitro ADME; details: dog
Source text: as §3

MDCK-MDR1 cell line = assay: Cell permeability MDR1-MDCK II; type: in vitro ADME
Source text: as §3

[6] = Cytotoxicity assay (LDH-Glo), HeLa; type: cell-based; details: human, HeLa cells, supplementary CSV, read-out: HeLa Cell toxicity IC50
Method: as §1, §2

S100A11-AnII = target: T1, S100A11-AnII (Homo sapiens, UniProt P31949); assay: HTRF (TR-FRET) peptide displacement S100A11-AnII; type: binding; details: supplementary CSV
T1 construct: made in house; host or cells: E. coli Rosetta (DE3); peptide from LifeTein
T1 sequence (P31949 1-105): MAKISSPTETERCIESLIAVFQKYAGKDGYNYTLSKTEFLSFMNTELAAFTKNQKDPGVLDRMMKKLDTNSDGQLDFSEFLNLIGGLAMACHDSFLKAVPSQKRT
Method: Table S4: Compound IDs and SMILES … S30 […]
(§4) Peptide displacement assay development
(§5) addition of an inhibitor.
(§6) Assay was done in 384-well
(§7) After 2 hours of incubation at
(§8) concentration range to avoid the saturation of the signal.

S100A4-NMII [7] = target: T2, S100A4-NMII (Homo sapiens, UniProt P26447); assay: cell-based
Source text: First, we performed IC50 measurements of protein–protein interaction in the presence of inhibitors using NanoBret technology. Briefly, S100A4-HaloTag and NMII-NanoLuc were expressed in 293HEK cells to allow signal detection from donor (NanoLuc) and acceptor (HaLoTag) proximity upon S100A4-NMII interaction.
Assay development was done according to the NanoBRet-NanoGlo detection system manufacturer’s recommendations (Promega) by testing each combination of N- and C-termini of HaloTag and NanoLuc fusion constructs. 293HEK cells were seeded on 6-well plates in complete DMEM media and transfected 6 h later with S100A4-NanoLuc (1.8 μg) and NMII-HaloTag (0.2 μg) constructs using the JetPrime transfection reagent (Polyplus Transfection, Strasbourg, France). After an overnight incubation, cells were resuspended in phenol-red-free, 4% serum media in the presence of the HaloTag NanoBret 618 ligand or DMSO for control. […] NanoBret NanoGlo substrates were added to cells prior to reading the plate with the Pherastar FSX plate reader. The raw Nanobret ratio was calculated by dividing the acceptor emission value (618 nm) by the donor emission value (460 nm) for each sample. The mean NanoBret data were calculated by subtracting the background ratio (no acceptor control) from the sample ratio.

P-gp (MDR1) = assay: Cell permeability MDR1-MDCK II; type: in vitro ADME; details: dog
Source text: as §3

S100A4-NMII [8] = target: T2, S100A4-NMII; assay: HTRF (TR-FRET) peptide displacement S100A4-NMII (MPN peptide); type: binding; design: made in house; host or cells: E. coli Rosetta (DE3); peptide from LifeTein; details: supplementary CSV
Method: as §4, §5, §6, §7, §8

S100A4 [9] = target: T3, S100A4 (Homo sapiens, UniProt P26447); assay: Protein labeling detection by mass spectrometry, S100A4; details: 10 μM S100A4, 100 μM inhibitor, 1 h
Method: To confirm its mechanism of inhibition, we performed a protein labeling assay. S100A4 protein was incubated in the presence of BAY11–7082 and analyzed by mass spectrometry (Figure 1C).
The compounds and their activity on S100A4-NMII and S100A11-AnII are shown in Figure 2A,B. To investigate their covalent activity, we then performed a protein labeling assay by incubating S100A4 in the presence of the inhibitors in parallel.
The mixture was incubated for 1 h at room temperature in the dark and analyzed by mass spectrometry using a 1290 Infinity coupled to a 6530 Accurate-Mass Q-TOF LC/MS (Agilent Technologies). Results were analyzed using the Qualitative Analysis MassHunter Acquisition Data and the Bioconfirm software.

S100A4 [10] = target: T3, S100A4; assay: biochemical
Method: As a starting point to discover new S100 inhibitors, we used a peptide-displacement assay based on the Amplified Luminescent Proximity Homogeneous Assay (AlphaScreen) of a His-tagged protein interacting with a biotinylated peptide and its ability to be disrupted by small molecule inhibitors of protein interactions.[31] We took advantage of the ability of several S100 proteins to interact with the TRTK-12 peptide.[32] The optimal experimental conditions were determined by performing a protein versus peptide titration for each protein. Serial dilutions of purified 6His-S100 protein (S100A2, S100A4, S100A5, or S100B) were mixed with a serial dilution of a biotinylated TRTK-12 peptide in the presence of 1 mM calcium to allow conformational changes and activation of S100 proteins. […]
(§9) A 4 989 compound library was screened using an Alpha-Screen assay. […] Twelve wells per plate were used as solvent controls and as a reference for inhibition calculation, which was calculated as inhibition (%) = (1 – (Fsample– Fbackground)/(Fsolvent – Fbackground)) × 100
(§10) The best hits from the single-shot experiment were tested for IC50 determination using the HTRF assay as described above. […] The percentage of inhibition was calculated as described above and was used for IC50 determination. […]

S100A5 = S100A5 (Homo sapiens, UniProt P33763); details: read-out: IC50 S100A5 - TRTK peptide displacement; AlphaScreen, duplicate, 50 μM top FAC
Method: (§11) As a starting point to discover new S100 inhibitors, we used a peptide-displacement assay based on the Amplified Luminescent Proximity Homogeneous Assay (AlphaScreen) of a His-tagged protein interacting with a biotinylated peptide and its ability to be disrupted by small molecule inhibitors of protein interactions.[31] We took advantage of the ability of several S100 proteins to interact with the TRTK-12 peptide.[32] The optimal experimental conditions were determined by performing a protein versus peptide titration for each protein. Serial dilutions of purified 6His-S100 protein (S100A2, S100A4, S100A5, or S100B) were mixed with a serial dilution of a biotinylated TRTK-12 peptide in the presence of 1 mM calcium to allow conformational changes and activation of S100 proteins. The protein–peptide ratio that allows the highest signal to background, without signal saturation, was chosen as the assay condition for each protein to perform the first screening campaign (Figure S1 and Table S1). An internal diversity library of 4 989 small molecules was screened at a single-dose of 50 μM in duplicate in a 384-well plate format. The four S100 protein screening experiments were performed in parallel. […] We also selected the hits based on their ability to show specificity for one protein; compounds showing 50% or more inhibition for other S100 proteins were not selected (Supporting Information).
as §9, with “assay. 6His-Tag-S100A2, -S100A4, -S100A5, and -S100B were used in combination with TRTK-Biotin peptide under conditions described previously.” for “assay.”
as §10

S100A2 = S100A2 (Homo sapiens, UniProt P29034); details: read-out: IC50 S100A2 - TRTK peptide displacement; AlphaScreen, duplicate, 50 μM top FAC
Method: as §11
as §9, with “assay. 6His-Tag-S100A2, -S100A4, -S100A5, and -S100B were used in combination with TRTK-Biotin peptide under conditions described previously.” for “assay.”
as §10

S100B = S100B (Homo sapiens, UniProt P04271); details: read-out: IC50 S100B - TRTK peptide displacement; AlphaScreen, duplicate, 50 μM top FAC
Method: as §11
as §9, with “assay. 6His-Tag-S100A2, -S100A4, -S100A5, and -S100B were used in combination with TRTK-Biotin peptide under conditions described previously.” for “assay.”
as §10

[11] = MDCK-MDR1, A to B, read-out: MDR1-MDCK II, AB Papp
[12] = MDCK-MDR1, B to A, read-out: MDR1-MDCK II, BA Papp
[13] = read-out: S100A4 IC50 HTRF assay

T2 sequence (P26447 whole entry): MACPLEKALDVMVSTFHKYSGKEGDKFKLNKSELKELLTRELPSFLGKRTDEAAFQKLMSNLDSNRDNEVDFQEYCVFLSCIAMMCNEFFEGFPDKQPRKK
T3 sequence (P26447 whole entry): as above
Chain of S100A5 (P33763 whole entry): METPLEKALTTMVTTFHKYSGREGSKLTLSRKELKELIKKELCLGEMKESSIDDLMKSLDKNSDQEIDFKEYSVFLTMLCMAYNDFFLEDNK
Chain of S100A2 (P29034 whole entry): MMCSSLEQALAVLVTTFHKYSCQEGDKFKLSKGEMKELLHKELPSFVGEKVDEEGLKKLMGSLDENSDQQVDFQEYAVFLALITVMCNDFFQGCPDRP
Chain of S100B (P04271 whole entry): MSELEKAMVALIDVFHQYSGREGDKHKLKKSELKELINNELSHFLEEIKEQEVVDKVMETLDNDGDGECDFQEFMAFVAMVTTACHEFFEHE

O=C(NC1CCCc2ccccc21)[C@H]1C[C@H](c2ccccc2)CN1C(=O)CCl (stereo partly shown) [5b]
IC50 (A549): 22.1 µM
aqueous solubility (in words) [1]: good solubility
solubility [1]: 45.7 µg/mL and 115 µM
MLM, Cli [2]: 778 μL/min/mg protein
half-life [2]: 2 min
half-life at 50 μM [3]: 5.7 h
IC50 at 48 h [4]: 29.7 µM
IC50 (HeLa): 2.6 µM
logD (Log D): 3.74
Papp [5, 11]: 3.8 ×10⁻⁶ cm/s
Papp [5, 12]: 34.5 ×10⁻⁶ cm/s
cell permeability MDCK-MDR1 (in words) (MDCK-MDR1 cell line): good permeability without efflux
IC50 at 48 h [6]: 29.9 µM
IC50 (S100A11-AnII): > 30 µM

CC(C)C[C@@H](NC(=O)[C@H]1C[C@H](c2ccccc2)CN1C(=O)CCl)c1nc2ccccc2[nH]1 [5c]
IC50 (A549): 11.9 µM
solubility [1]: 1.69 µg/mL and 3.73 µM
microsomal stability MLM (in words) [2]: moderate MLM stability
MLM, Cli [2]: 209 μL/min/mg protein
half-life [2]: 7 min
half-life at 50 μM [3]: 6.8 h
IC50 at 48 h [4]: 37.7 µM
IC50 (HeLa): 4.5 µM
IC50 (S100A4-NMII [7]): 11.1 µM
logD (Log D): 4.64
Papp (P-gp (MDR1); [11]): 12.6 ×10⁻⁶ cm/s
Papp (P-gp (MDR1); [12]): 38.8 ×10⁻⁶ cm/s
IC50 at 48 h [6]: 29.8 µM
IC50 (S100A11-AnII): 36.8 µM
IC50 (S100A4-NMII [8]; S100A4 + 1mM GSH IC50 HTRF assay, 1 mM GSH): 1.57 µM
IC50 (S100A4-NMII [8]; [13]): 0.77 µM
S100A4 covalent modification pattern (in words) (S100A4 [9]): single shifts

CN1CCCC(NC(=O)[C@H]2C[C@H](c3ccccc3)CN2C(=O)CCl)C1=O (stereo partly shown) [5d]
IC50 (S100A11-AnII): > 30 µM
IC50 (S100A4-NMII [8]; [13]): 1.05 µM

O=C1Nc2ccccc2C1NC(=O)[C@H]1C[C@H](c2ccccc2)CN1C(=O)CCl (stereo partly shown) [5e]
IC50 (S100A11-AnII): > 30 µM
IC50 (S100A4-NMII [8]; [13]): 3.25 µM

COc1cccc(N2CC(NC(=O)[C@H]3C[C@H](c4ccccc4)CN3C(=O)CCl)CC2=O)c1 (stereo partly shown) [5f]
IC50 (S100A11-AnII): > 30 µM
IC50 (S100A4-NMII [8]; [13]): 4.75 µM

N#CCc1ccc(NC(=O)[C@H]2C[C@H](c3ccccc3)CN2C(=O)CCl)cc1 [5g]
IC50 (S100A11-AnII): > 30 µM
IC50 (S100A4-NMII [8]; [13]): 1.24 µM

Cc1ccc(S(=O)(=O)/C=C/C#N)cc1 [compound 1]
IC50 (S100A4 [10]): < 1 µM
IC50 (S100A4 [10]; read-out: IC50 S100A4 - TRTK peptide displacement, AlphaScreen, duplicate, 50 μM top FAC, 1 mM calcium): 1.23 µM
IC50 (S100A5): > 30 µM
IC50 (S100A2): > 30 µM
IC50 (S100B): > 30 µM

O=C(Nc1cccc(Cl)c1)[C@H]1C[C@H](c2ccccc2)CN1C(=O)CCl [compound 5]
IC50 (S100A11-AnII): 33.8 µM
IC50 (S100A4-NMII [8]; [13]): 7.4 µM
